# Experimental data from patent US8097624B2, “Cycloalkyl derivatives of 3-hydroxy-4-pyridinones” (Apotex Inc., priority 2006, dated 2012).
# Assays:
# [1] = Metal complexation constants, Fe system (spectrophotometric titration; pM by Hyss); assay type: binding; settings: for Log β3: Fe(III) overall complexation constant; for pFe^3+: total iron 10^−6 M, ligand 10^−5 M, pH 7.4, calculated from experimental pKa and complexation constants
# Procedure: Compounds of this invention are designed to improve properties to known deferiprone analogues. […]. The definition of pFe^3+ used herein is the concentration of ferric ion in solution when the total amount of iron equals 10^−6 M and the concentration of ligand is 10^−5 M and pH is 7.4. It is calculated using experimental determined pKa and metal complexation constants using Hyperquad software (Version 2.1, Peter Gans, University of Leeds). The lowering of the pKa value of the C3 phenolic OH to less than 8.8 ensures that a higher pFe^3+ value when combined with a favorable complexation constant β3. The concept of complexation is detailed below.
# The stepwise and overall complexation constants of a bidentate ligand such as 3-hydroxy-4-pyridinone follow: Fe(III)+Ligand→Fe[Ligand]1K1 Fe[Ligand]1+Ligand→Fe[Ligand]2K2 Fe[Ligand]2+Ligand→Fe[Ligand]3K3 Complexation constant β3=K1.K2.K3
# Stepwise formation constants for M^n+-ligand systems were determined by spectrophotometric titration when metal complexes have a strong absorbance in the visible region due to ligand to metal charge transfer. In a typical experiment, the sample solution was prepared according to the following method: Apo6619 (10.7 mg) was weighed into an 80-ml beaker, followed by the addition of 0.1 M NaCl (50 ml). The mixture was sonicated for 10 minutes to give a clear colorless solution. Iron stock solution (atomic absorption standard, Aldrich, 496 μl, 8.93E-06 moles) was pipetted into the solution followed by the addition of 1.000 N NaOH (137 μl). The molar ratio between the total iron and the total Apo6619 was 1:5.4. The mixture was allowed to equilibrate at room temperature overnight. Nitrogen was allowed to bubble through the solution. 1.000 N Hydrochloric acid (3 ml) was then added to the solution to give pH 1.5. The solution was allowed to equilibrate at 22° C. for 3 hours.
# A sipper system was used for the circulation of the sample solution between the beaker and the flow cell.
# The sample solution was titrated against standard NaOH solutions at 22° C. to reach pH 6.89. After each addition of base the solution was allowed to equilibrate until a constant pH reading was reached. The pH and the UV-Vis spectrum were recorded for each measurement. For each measurement enough base was added so that there was a slight increase in the absorbance of the spectrum. The solution was titrated until there was no obvious increase in the spectra after several subsequent additions of base. Altogether 64 measurements were taken to finish the experiment.
# […]; pM^n+ is defined as −log [M(H2O)m]^n+ at physiological conditions, i.e.: pH 7.4, a ligand concentration of 10 μM, and a metal concentration of 1 μM.
# To calculate pM^n+ for a MLn system, βn and pKa values are needed (βn are the formation constants for M^n++n L^− ? MLn; pKa are the equilibrium constants for L^−+n H^+ ? LHn^(n−1)+). The pM^n+ can be calculated by using Hyss software (Hyperquad Stimulation and Speciation software: HYSS2© 2000 Protonic Sofware).
# Iron Overloaded Rat = assay: Urinary and fecal iron excretion in the iron overloaded rat (first study, 450 μmoles/kg); assay type: in vivo; settings: for urinary excretion of iron compared with deferiprone: 450 μmol/kg; for Fecal excretion (fecal iron, three days after chelator administration): 450 μmoles/kg oral, n=6, mean ± 1SD
# Excerpt: The purpose of this study was to determine the effectiveness of Apo6619 and Apo6617 in promoting iron excretion in the iron overloaded rat model. Iron overloading was achieved by administration of iron dextran. Iron overloading using iron dextran has previously been used to assess chelator efficacy in mice (Kontoghiorghes G. J., Mol. Pharmacol. 1986, 30(6), 670-3; Bartfay et al., Cardiovasc Res. 1999, 43(4), 892-900), gerbils (Hershko et al., J. Lab Clin Med 2002, 139, 50-58), rats (Rakba N. Biochem Pharmacol. 1998, 55(11):1796-1806) and primates (Bergeron et. al., Blood, 1992, 79(7), 1882-1890). The iron loading regime used in this study results in a 20-fold increase in liver iron and a 3.8-fold increase in cardiac iron levels in male rats.
# Six male Sprague-Dawley rats (weighing between 200-250 gms) were received from Charles River Laboratories, Montreal, Quebec, Canada. Rats were iron loaded by administration of iron dextran intraperitoneally at a dose of 100 mg/kg, twice weekly for a period of 4 weeks for a total of 8 injections (iron dextran, Sigma). The total volume of iron dextran injected was 1 mL/kg. Following an eight week period, rats were transferred to metabolic cages (one rat/cage). Once the animals were in the metabolic cages, excreta (both urine and feces) were collected daily for at least 3 day prior to and 4 days following the administration of each chelator. Each of the two chelators (Apo6619 and Apo6617) was administered consecutively. Chelators were administered as a single dose of 450 μmoles/kg by oral gavage at a dose volume of 2-4 mL/kg. The animals were weighed prior to dosing to enable exact dosage administration. Animals were checked daily (eyes, skin and movement) after chelator administration to determine if there were any obvious signs of ill health. Urine and feces were stored at −20° C. until analysis for total iron concentrations.
# Rats were housed in a climate and light controlled environment (temperature: 19-25° C., relative humidity 40%, 12 hrs light/dark cycle) throughout the study. During the acclimatization, iron loading and equilibration phases, rats were placed in standard cages (2 rats/cage), fed standard rodent chow and given regular tap water ad libitum. Rats were transferred to metabolic cages (one rat/cage, Nalgene, Rochester N.Y.) after iron loading and equilibration. Three days before placement of the rats in the metabolic cages, rats were fed a low iron diet (3 ppm iron, Dyets Inc., Bethlehem, Pa.) and given Millipore water ad libitum. Rats were continued on the low iron diet for the duration of the study. The purpose of placing animals on a low iron diet was to reduce the background noise produced by dietary iron in the fecal samples.
# A 50 mg/ml dosing solution of the chelator of formula I (570 mg) was first dissolved in a mixture of Millipore water (2 ml) and 6N HCl (0.4 ml) and brought up to the final volume (11.4 ml) with Millipore water (9 ml). Final pH of the solutions was adjusted to pH 4 with diluted sodium hydroxide solution. Solutions were protected from light and prepared freshly prior to each administration.
# Urine and feces samples were shipped to the Trace Elements Laboratory at the London Health Sciences Center, London, Ontario, Canada for analysis of total iron concentration. Briefly, feces samples were prepared by adding water, heating to 98° C., vortexing and subsequently freeze drying. The samples were then mixed, and a representative subsample taken and digested with boiling HNO3 and H2O2. Feces samples were then diluted 1:100 with ultrapure water prior to running using a high resolution sector field ICP-MS (Finnigan Element 1). Urine samples were digested with 0.1% HNO3 and diluted 1/10 prior to running on the ICP-MS. Appropriate calibration curves using iron spiked samples and NIST traceable standards were used. Samples lying above or below the quantification range were re-run. […]
# [2] = single oral dose 450 μmoles/kg, n=6
Structure (SMILES),Log β3 [1],"PM Fe(III) ([1]; pH 7.4, ligand 10 μM, metal 1 μM)",pFe^3+ [1],urinary excretion of iron compared with deferiprone (Iron Overloaded Rat),"Fecal excretion (fecal iron, three days after chelator administration) (Iron Overloaded Rat)",urinary iron excretion one day after chelator administration (Iron Overloaded Rat; [2]),urinary iron excretion second day after chelator administration (Iron Overloaded Rat; [2]),urinary iron excretion third day after chelator administration (Iron Overloaded Rat; [2])
"CNC(=O)c1c(O)c(=O)cc(C)n1C1CC1 [Apo6619, 1-Cyclopropyl-3-hydroxy-6-methyl-4-oxo-1,4-dihydro-pyridine-2-carboxylic Acid Methylamide]",33.4,20.5,20.7,significantly higher than deferiprone,4154 ± 1245 µg/day/kg,240 ± 131 µg/day/kg,16 ± 5 µg/day/kg,5 ± 1 µg/day/kg
"Cc1c(O)c(=O)ccn1C [deferiprone, 1,2-dimethyl-3-hydroxy-4-pyridinone, reference compound]",36.3,,19.7,,2157 ± 169 µg/day/kg,80 ± 32 µg/day/kg,returned to baseline,
"Cc1cc(=O)c(O)c(C(=O)NC2CC2)n1C [Apo6617, 3-Hydroxy-1,6-dimethyl-4-oxo-1,4-dihydro-pyridine-2-carboxylic Acid Cyclopropylamide]",33.6,,20.8,significantly higher than deferiprone,4411 ± 790 µg/day/kg,164 ± 55 µg/day/kg,17 ± 13 µg/day/kg,
